Measured values: US20100183710A1, “OMEPRAZOLE FORM B” (priority 2005, published 2010)

How the values were obtained:
[1] = Long-term stability study of omeprazole Form B (polymorphic form by XRPD); assay type: physicochemical
Excerpt: Omeprazole Form B prepared using a method similar to the one described in Example 1 was subjected to long-term stability studies. Each sample was packed in a clear polythene bag, filled with nitrogen, tied with a tag and kept in a black polythene bag along with silica pouch filled with nitrogen and then sealed. Finally, the above triple laminated bag along with silica pouch was sealed and stored in a HDPE drum. The color, moisture content, purity and the polymorphic form of the product was checked at intervals during storage. The results for compliance of polymorphic form are tabulated below, where “ND” means not detected by XRPD. 950 mg of Form B and 50 mg of Form A of Omeprazole were weighed and combined to form a weight ratio of Form B to Form A of 95:5. The mixture was ground three times in a mortar to get a uniform powder. [table] FIG. 6 is a scan for pure omeprazole Form B. FIG. 5 is the XRPD scan for the standard, containing 5% by weight of omeprazole Form A, and the scan of FIG. 6 has been superimposed for comparison.

[2] = as described in U.S. Pat. No. 6,150,380; cited from earlier work

Row | Structure (SMILES) | Color, moisture content and purity of the product during storage ([1]; long-term stability storage) | Conversion into crystalline Form A during storage ([1]; storage in a container for 6 months at 40° C. and 60% relative humidity) | Conversion into Form A [2] | Hygroscopicity relative to omeprazole Form B [2] | Thermodynamic stability relative to omeprazole Form B [2]
1 | COc1ccc2[nH]c([S+]([O-])Cc3ncc(C)c(OC)c3C)nc2c1 (centres unmarked) [Omeprazole Form B, 5-Methoxy-2-[[(4-methoxy-3,5-dimethyl-2-pyridinyl)methyl]sulfinyl]-1H-benzimidazole] | remained substantially the same | does not convert into crystalline Form A | can completely or partially convert into Form A |  | 
2 | COc1ccc2[nH]c([S+]([O-])Cc3ncc(C)c(OC)c3C)nc2c1 (centres unmarked) [omeprazole Form A, 5-Methoxy-2-[[(4-methoxy-3,5-dimethyl-2-pyridinyl)methyl]sulfinyl]-1H-benzimidazole] |  |  |  | less hygroscopic | thermodynamically more stable
